Experimental data from paper PMC4861933, “Structural and biochemical characterisation of Archaeoglobus fulgidus esterase reveals a bound CoA molecule in the vicinity of the active site” (Scientific Reports, 2016).

Experiments:
AF-Est2 [1] = target: T1, AF-Est2 (Archaeoglobus fulgidus, UniProt O28735); test: p-nitrophenol release at […] nm, microplate, Michaelis-Menten fit; assay type: biochemical; conditions: 50 mM Tris-HCl pH 7.5, 30 °C; enzyme carries co-purified CoA
T1 construct: gene AF_1537; full-length, no stop codon, C-terminal 6xHis tag (pET24d, plasmid pWUR365), E. coli BL21-CodonPlus(DE3)-RIPL; tag kept

AF-Est2 [2] = target: T1, AF-Est2; test: X-ray crystal structure, […] Å; assay type: binding; conditions: co-purified from expression host, not added; full occupancy; groove near active site, pantetheine in alcohol pocket
AF-Est2 [3] = target: T1, AF-Est2; test: phenol red pH-indicator assay at […] nm, Michaelis-Menten fit; assay type: biochemical; conditions: 1 mM HEPES pH 8.0; kcat is that at 70 °C (one KM printed for 70, 50 and 30 °C)

T1 sequence (O28735 entry or part of it): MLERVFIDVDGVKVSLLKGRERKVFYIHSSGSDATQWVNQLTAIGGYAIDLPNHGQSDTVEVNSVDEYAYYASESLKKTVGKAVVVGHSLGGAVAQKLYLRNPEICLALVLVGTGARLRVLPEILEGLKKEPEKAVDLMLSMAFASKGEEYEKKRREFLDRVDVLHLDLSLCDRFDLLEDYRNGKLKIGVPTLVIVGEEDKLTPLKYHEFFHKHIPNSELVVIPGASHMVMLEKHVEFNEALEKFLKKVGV

Row | SMILES | Km (AF-Est2 [1]) | other results
1 | CC(=O)Oc1ccc([N+](=O)[O-])cc1 [C2, pNP-acetate] | 620 ± 10 µM | 
2 | CCC(=O)Oc1ccc([N+](=O)[O-])cc1 [C3, pNP-propionate] | 254 ± 8 µM | 
3 | CC(C)(COP(=O)(O)OP(=O)(O)OC[C@H]1O[C@@H](n2cnc3c(N)ncnc32)[C@H](O)[C@@H]1OP(=O)(O)O)[C@@H](O)C(=O)NCCC(=O)NCCS [CoA] |  | X-ray crystal structure, 1.4 Å (AF-Est2 [2]): confirmed the full occupancy of this CoA ligand in the AF-Est2 structure
4 | COC(=O)c1ccc(C)cc1 [methyl p-toluate] |  | Km (AF-Est2 [3]): 1500 ± 100 µM

Second part, led by results:

Row | Km (AF-Est2 [1]) | SMILES | other results
5 | 92 ± 3 µM | CCCC(=O)Oc1ccc([N+](=O)[O-])cc1 [C4, pNP-butyrate] | 
6 | 19 ± 1 µM | CCCCC(=O)Oc1ccc([N+](=O)[O-])cc1 [C5, pNP-valerate] | 
7 | 120 ± 10 µM | CCCCCCCC(=O)Oc1ccc([N+](=O)[O-])cc1 [C8, pNP-caprylate] | 
